Here are results for eight compounds from ChEMBL document CHEMBL1124571, “Cardiac glycoside-like structure and function of 5 beta,14 beta-pregnanes” (J Med Chem, 1989).

Usually IC50 stands for the concentration at which inhibition is half-maximal. Read a high IC50 as a need for much substance.

The experiment deals with Sodium/potassium-transporting ATPase. The experiment can be described thus: Compound is evaluated for inhibition of specific binding of [3H]ouabain to membranes from dog heart. Also noted: species or system Canis lupus familiaris.
The compound `C[C@H](O)[C@H]1CC[C@@]2(O)[C@@H]3CCC4C[C@@H](OC5CC(O)C(O)C(CO)O5)CC[C@]4(C)[C@H]3CC[C@]12C` (stereo in doubt; 5) came in with a concentration for half-maximal inhibition (IC50) of 0.4 µM.
As for `C[C@H](O)[C@H]1CC[C@@]2(O)[C@@H]3CCC4C[C@@H](OC5CC(O)C(O)C(CO)O5)CC[C@]4(C)[C@H]3CC[C@]12C` (stereo in doubt), the figure is 0.06 µM; as for `CC(=O)[C@H]1CC[C@@]2(O)[C@@H]3CC[C@H]4CC(=O)CC[C@]4(C)[C@H]3CC[C@]12C`, 46 µM; as for `CC(=O)[C@H]1CC[C@@]2(C)[C@@H](CC[C@@H]3[C@@H]2CC[C@]2(C)[C@@H](C(C)=O)CC[C@@]32O)C1`, 20 µM.
Regarding `CC(=O)[C@H]1CCC2(O)C3CCC4CC(O)CCC4(C)C3CCC12C` (stereo partly drawn), the IC50 was over 400 µM.
Compound `CC(=O)[C@H]1CC[C@@]2(O)[C@@H]3CC[C@H]4C[C@@H](O)CC[C@]4(C)[C@H]3CC[C@]12C` yielded an IC50 of 21 µM.
To `CC(=O)[C@@H]1CC[C@@]2(C)[C@@H](CC[C@@H]3[C@@H]2CC[C@]2(C)C([C@H](C)O)CC[C@@]32O)C1` (stereo partly drawn) belongs 6 µM.
To `CC(O)[C@H]1CC[C@@]2(O)[C@@H]3CCC4C[C@@H](O)CC[C@]4(C)[C@H]3CC[C@]12C` (stereo partly drawn) belongs 6 µM.
